Values after ≈ are worked out from the molar mass of the structure shown.
Tests used:
Experiment in all cases: in vitro antibacterial evaluation, MIC by broth dilution
Type in all cases: cell-based
Enterococcus sp. = conditions: broth dilution, 18 hours at 35° C.
Procedure, shortened: (§1)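 Inoculum 5×10^5 CFU/mL; concentrations 64 to 0.06 μg/mL; MIC defined as lowest inhibitory level. Conducted by broth dilution under NCCLS guidelines.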

Staphylococcus sp. = conditions: broth dilution, 18 hours at 35° C.
Procedure, shortened: as §1

Streptococcus sp. = conditions: broth dilution, 18 hours at 35° C.
Procedure, shortened: as §1

Escherichia coli = conditions: 18 hours at 35° C.

CC(c1ccccc1)C1NC(=O)CNC(=O)C(CO)NC(=O)C(C(O)C2CNC(=N)N2C2OC(CO)C(O)C(O)C2O)NC(=O)C(C(O)C2CNC(=N)N2)NC(=O)C(Cc2ccc(OC3OC(CO)C(OC4OC(COCc5ccc(Oc6ccccc6)cc5)C(O)C(O)C4O)C(O)C3O)cc2)NC1=O (stereo not shown) [Example 236]
MIC Enterococcus avium (GC 4558) (Enterococcus sp.): 2 µg/mL (≈ 1.35 µM)
MIC Enterococcus faecalis (ATCC 29212) (Enterococcus sp.): 4 µg/mL (≈ 2.71 µM)
MIC Enterococcus faecalis (GC 2242) (Enterococcus sp.): 4 µg/mL (≈ 2.71 µM)
MIC Enterococcus faecalis (GC 2691) (Enterococcus sp.): 2 µg/mL (≈ 1.35 µM)
MIC Enterococcus faecalis (GC 3059) (Enterococcus sp.): 2 µg/mL (≈ 1.35 µM)
MIC Enterococcus faecalis (GC 4552) (Enterococcus sp.): 4 µg/mL (≈ 2.71 µM)
MIC Enterococcus faecalis (GC 4553) (Enterococcus sp.): 4 µg/mL (≈ 2.71 µM)
MIC Enterococcus faecalis (GC 4554) (Enterococcus sp.): 4 µg/mL (≈ 2.71 µM)
MIC Enterococcus faecalis (GC 6189) (Enterococcus sp.): 2 µg/mL (≈ 1.35 µM)
MIC Enterococcus faecium (GC 2243) (Enterococcus sp.): 4 µg/mL (≈ 2.71 µM)
MIC Enterococcus faecium (GC 4556) (Enterococcus sp.): 4 µg/mL (≈ 2.71 µM)
MIC Enterococcus faecium (GC 4557) (Enterococcus sp.): 2 µg/mL (≈ 1.35 µM)
MIC Enterococcus faecalis (ATCC 29212) (Enterococcus sp.; strain ATCC 29212): 4 µg/mL (≈ 2.71 µM)
MIC Enterococcus faecium (GC 2243) (Enterococcus sp.; strain GC 2243): 4 µg/mL (≈ 2.71 µM)
MIC Enterococcus faecalis (GC 4552) (Enterococcus sp.; strain GC 4552): 4 µg/mL (≈ 2.71 µM)
MIC Enterococcus faecalis (GC 4553) (Enterococcus sp.; strain GC 4553): 4 µg/mL (≈ 2.71 µM)
MIC Enterococcus faecalis (GC 4554) (Enterococcus sp.; strain GC 4554): 4 µg/mL (≈ 2.71 µM)
MIC Enterococcus faecium (GC 4556) (Enterococcus sp.; strain GC 4556): 4 µg/mL (≈ 2.71 µM)
MIC Enterococcus faecium (GC 4557) (Enterococcus sp.; strain GC 4557): 2 µg/mL (≈ 1.35 µM)
MIC Enterococcus avium (GC 4558) (Enterococcus sp.; strain GC 4558): 2 µg/mL (≈ 1.35 µM)
MIC Enterococcus faecalis (GC 6189) (Enterococcus sp.; strain GC 6189): 2 µg/mL (≈ 1.35 µM)
MIC Enterococcus faecalis (GC 2242) (Enterococcus sp.; inoculum 5×10^5 CFU/mL, strain GC 2242): 4 µg/mL (≈ 2.71 µM)
MIC Enterococcus faecalis (GC 2691) (Enterococcus sp.; inoculum 5×10^5 CFU/mL, strain GC 2691): 2 µg/mL (≈ 1.35 µM)
MIC Enterococcus faecalis (GC 3059) (Enterococcus sp.; inoculum 5×10^5 CFU/mL, strain GC 3059): 2 µg/mL (≈ 1.35 µM)
MIC Coagulase Negative Staphylococcus (GC 4547) (Staphylococcus sp.): 2 µg/mL (≈ 1.35 µM)
MIC Coagulase Negative Staphylococcus (GC 4548) (Staphylococcus sp.): 0.5 µg/mL (≈ 0.338 µM)
MIC Coagulase Negative Staphylococcus (GC 4549) (Staphylococcus sp.): 0.5 µg/mL (≈ 0.338 µM)
MIC Coagulase Negative Staphylococcus (GC 4551) (Staphylococcus sp.): 2 µg/mL (≈ 1.35 µM)
MIC Coagulase Negative Staphylococcus (GC 6257) (Staphylococcus sp.): 1 µg/mL (≈ 0.677 µM)
MIC Staphylococcus aureus (ATCC 29213) (Staphylococcus sp.): 2 µg/mL (≈ 1.35 µM)
MIC Staphylococcus aureus (GC 1131) (Staphylococcus sp.): 2 µg/mL (≈ 1.35 µM)
MIC Staphylococcus aureus (GC 3051) (Staphylococcus sp.): 2 µg/mL (≈ 1.35 µM)
MIC Staphylococcus aureus (GC 3053) (Staphylococcus sp.): 2 µg/mL (≈ 1.35 µM)
MIC Staphylococcus aureus (GC 4541) (Staphylococcus sp.): 2 µg/mL (≈ 1.35 µM)
MIC Staphylococcus aureus (GC 4542) (Staphylococcus sp.): 4 µg/mL (≈ 2.71 µM)
MIC Staphylococcus aureus (GC 4544) (Staphylococcus sp.): 2 µg/mL (≈ 1.35 µM)
MIC Staphylococcus aureus (GC 4545) (Staphylococcus sp.): 2 µg/mL (≈ 1.35 µM)
MIC Staphylococcus aureus-SMITH (GC 4543) (Staphylococcus sp.): 2 µg/mL (≈ 1.35 µM)
MIC Staphylococcus haemolyticus (GC 4546) (Staphylococcus sp.): 2 µg/mL (≈ 1.35 µM)
MIC Staphylococcus aureus (ATCC 29213) (Staphylococcus sp.; strain ATCC 29213): 2 µg/mL (≈ 1.35 µM)
MIC Staphylococcus aureus (GC 1131) (Staphylococcus sp.; strain GC 1131): 2 µg/mL (≈ 1.35 µM)
MIC Staphylococcus aureus (GC 3051) (Staphylococcus sp.; strain GC 3051): 2 µg/mL (≈ 1.35 µM)
MIC Staphylococcus aureus (GC 3053) (Staphylococcus sp.; strain GC 3053): 2 µg/mL (≈ 1.35 µM)
MIC Staphylococcus aureus (GC 4541) (Staphylococcus sp.; strain GC 4541): 2 µg/mL (≈ 1.35 µM)
MIC Staphylococcus aureus (GC 4542) (Staphylococcus sp.; strain GC 4542): 4 µg/mL (≈ 2.71 µM)
MIC Staphylococcus aureus-SMITH (GC 4543) (Staphylococcus sp.; strain GC 4543): 2 µg/mL (≈ 1.35 µM)
MIC Staphylococcus aureus (GC 4544) (Staphylococcus sp.; strain GC 4544): 2 µg/mL (≈ 1.35 µM)
MIC Staphylococcus aureus (GC 4545) (Staphylococcus sp.; strain GC 4545): 2 µg/mL (≈ 1.35 µM)
MIC Staphylococcus haemolyticus (GC 4546) (Staphylococcus sp.; strain GC 4546): 2 µg/mL (≈ 1.35 µM)
MIC Coagulase Negative Staphylococcus (GC 4547) (Staphylococcus sp.; strain GC 4547): 2 µg/mL (≈ 1.35 µM)
MIC Coagulase Negative Staphylococcus (GC 4548) (Staphylococcus sp.; strain GC 4548): 0.5 µg/mL (≈ 0.338 µM)
MIC Coagulase Negative Staphylococcus (GC 4549) (Staphylococcus sp.; strain GC 4549): 0.5 µg/mL (≈ 0.338 µM)
MIC Coagulase Negative Staphylococcus (GC 4551) (Staphylococcus sp.; strain GC 4551): 2 µg/mL (≈ 1.35 µM)
MIC Coagulase Negative Staphylococcus (GC 6257) (Staphylococcus sp.; strain GC 6257): 1 µg/mL (≈ 0.677 µM)
MIC Streptococcus agalactiae (GC 4564) (Streptococcus sp.): 0.12 µg/mL (≈ 0.0812 µM)
MIC Streptococcus pneumoniae (ATCC 6301) (Streptococcus sp.): <0.06 µg/mL
MIC Streptococcus pneumoniae (GC 1894) (Streptococcus sp.): <0.06 µg/mL
MIC Streptococcus pneumoniae (GC 4565) (Streptococcus sp.): <0.06 µg/mL
MIC Streptococcus pyogenes (GC 4563) (Streptococcus sp.): <0.06 µg/mL
MIC Streptococcus pneumoniae (ATCC 6301) (Streptococcus sp.; inoculum 5×10^5 CFU/mL, strain ATCC 6301): <0.06 µg/mL
MIC Streptococcus pneumoniae (GC 1894) (Streptococcus sp.; inoculum 5×10^5 CFU/mL, strain GC 1894): <0.06 µg/mL
MIC Streptococcus pyogenes (GC 4563) (Streptococcus sp.; inoculum 5×10^5 CFU/mL, strain GC 4563): <0.06 µg/mL
MIC Streptococcus agalactiae (GC 4564) (Streptococcus sp.; inoculum 5×10^5 CFU/mL, strain GC 4564): 0.12 µg/mL (≈ 0.0812 µM)
MIC Streptococcus pneumoniae (GC 4565) (Streptococcus sp.; inoculum 5×10^5 CFU/mL, strain GC 4565): <0.06 µg/mL
MIC Escherichia coli (ATCC 25922) (Escherichia coli): >64 µg/mL
MIC Escherichia coli (GC 4559) (Escherichia coli): >64 µg/mL
MIC Escherichia coli (GC 4560) (Escherichia coli): 1 µg/mL (≈ 0.677 µM)

From patent US6914045B2, “Glycopeptide antibiotics” (Wyeth Holdings Corporation, priority 2001, dated 2005)
